Results reported in patent US8822409B2, “Compositions and uses thereof for the treatment of acute respiratory distress syndrome (ARDS) and clinical disorders associated with therewith” (Phylogica Limited, priority 2007, dated 2014).
Entries after “also recorded” stand apart in the source; their conditions may differ. Where no end group is shown, it is not given here. [ ]: non-standard residue; d: D form.

Key:
[1] = system: C57/BL6 mice given intranasal LPS (animal model of ARDS and sepsis); assay: Neutrophil infiltration in BAL after intranasal peptide, LPS-induced mouse model of ARDS and sepsis (FIG. 1); type: in vivo; settings: repeated dose co-administered with LPS (10 μg/mouse), BAL 6 hours later, n=5
Procedure: FIG. 1 is a graphical representation showing the percentage of neutrophils (y-axis) in bronchoalveolar lavage (BAL) in 8-week to 12-week old C57/BL6 mice receiving various treatments indicated by numbers on the x-axis as follows:
Columns 1-4 (open bars): Animals (n=5 per group) received either no LPS (column 1) or a dose of LPS intranasally (10 μg/mouse) and BAL was performed 1 hour (column 2), 4 hours (column 3) or 6 hours (column 4) later. No peptide was administered to these animals.
Columns 5-7 (filled bars): Animals (n=5 per group) received an intranasal dose of 10 mg/kg body weight of retroinverted peptide analog D-PYC36-TAT (SEQ ID NO: 106; column 5) or D-PYC35-TAT (SEQ ID NO: 104; column 6), or 5 mg/kg body weight of retroinverted peptide analog D-PYC38-TAT (SEQ ID NO: 108; column 7), by a repeated dose of the same peptide analog for each group co-administered intranasally with LPS (10 μg/mouse) and BAL was performed 6 hours later.
Column 8 (hatched bars): Animals (n=5) received an intranasal dose of 10 mg/kg body weight of a scrambled version of SEQ ID NO: 106 designated D-PYC36scrambled-TAT followed 1 hour later by a repeated dose of the same peptide analog co-administered intranasally with LPS (10 μg/mouse) and BAL was performed 6 hours later.
BAL was performed on the animals using 1 ml GKN/0.2% BSA. Cell counts were obtained to determine total cell numbers and differential counts were obtained on cytocentrifuge slide preparations to elucidate the percentage neutrophils in BAL.
8-12 week old C57/B16 mice were purchased from the Animal Resource Center, Murdoch University, Western Australia and used for all experiments. All experiments were approved by the necessary institutional animal ethics committees and were performed in accordance with the National Health and Medical Research Council (NHMRC) Australian Code of Practice for the Care and Use of Animals for Scientific Purposes. […]

[2] = system: female C57/BL6 mice given intranasal LPS (animal model of ARDS and sepsis); assay: Neutrophil infiltration in BAL after intravenous peptide injection, LPS-induced mouse model of ARDS and sepsis (FIG. 2); type: in vivo; settings: intravenous 10 mg/kg 20 min before intranasal LPS (40 μg/mouse), repeat injections 2 and 4 hours post-LPS, BAL 6 hours after LPS
Procedure: FIG. 2 is a graphical representation showing the percentage of neutrophils (y-axis) in bronchoalveolar lavage (BAL) in 8-week to 10-week old female C57/BL6 mice receiving various treatments indicated by numbers on the x-axis as follows:
Column 1 (naïve): Animals received no LPS and BAL was performed 6 hours later. No peptide was administered to these animals.
Column 2 (nil): Animals received an intranasal dose of E. coli LP (40 μg/mouse) and BAL was performed 6 hours later.
Column 3 (D36-TAT x1): Animals received a single intravenous injection of 10 mg/kg body weight of retroinverted peptide analog D-PYC36-TAT (SEQ ID NO: 106) followed 20 min later by an intranasal dose of LPS (40 μg/mouse). BAL was performed 6 hours after LPS administration.
Column 4 (D36-TATscr x1): Animals received a single intravenous injection of 10 mg/kg body weight of a peptide having a scrambled sequence relative to the retroinverted peptide analog D-PYC36-TAT (SEQ ID NO: 106) followed 20 min later by an intranasal dose of LPS (40 μg/mouse). BAL was performed 6 hours after LPS administration. […]

[3] = intranasal 10 mg/kg body weight 1 hour before LPS

Substance | percentage of neutrophils in bronchoalveolar lavage (BAL) [1, 3] | percentage of neutrophils in bronchoalveolar lavage (BAL) [2] | percentage of neutrophils in bronchoalveolar lavage (BAL) ([1]; intranasal 5 mg/kg body weight 1 hour before LPS)
SEQ ID NO: 104: retroinverted peptide analog of SEQ ID NO: 57 fused to the TAT 10-mer with a linking glycine; AP-1 signaling inhibitor ([dR][dE][dR][dK][dS][dS][dS][dE][dI]GG[dS][dR][dI][dS][dQ][dY][dA]G[dR][dR][dR][dQ][dR][dR][dK][dK][dR]G; also: retro-inverso) | significantly reduced; also recorded: significantly-reduced |  | 
SEQ ID NO: 106: retroinverted peptide analog of SEQ ID NO: 59 fused to the TAT 10-mer with a linking glycine; AP-1 signaling inhibitor ([dP][dK][dI][dS][dQ][dY]G[dQ][dR][dR][dR]G[dQ][dL]GG[dR][dR][dR][dQ][dR][dR][dK][dK][dR]G) | significantly reduced; also recorded: significantly-reduced | significantly reduced; also recorded: significantly-reduced | 
SEQ ID NO: 108: retroinverted peptide analog of SEQ ID NO: 61 fused to the TAT 10-mer with a linking glycine; AP-1 signaling inhibitor ([dR][dH][dA][dP][dL][dA][dR]G[dS][dW][dR]G[dQ][dP][dQ][dQ]G[dP][dQ][dR][dR]G[dQ][dL]GG[dR][dR][dR][dQ][dR][dR][dK][dK][dR]G) |  |  | significantly reduced; also recorded: significantly-reduced
